Results published in PubChem BioAssay (NCI).
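How tested: cells in 96-well plates exposed to compound for 48 hours at five concentrations. TGI: total growth inhibition.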 Where a SMILES comes first, the peptide text is derived from it. [ ]: non-standard residue; d: D form. The star is where a group is joined. Bn2Val = CC(C)[C@@H](C(=O)*)N(Cc1ccccc1)Cc1ccccc1; NH(3,4-diMeO-benzyl) = COc1ccc(CN*)cc1OC; NMeV = CN[C@H](C(=O)O)C(C)C

How the values were obtained:
Assay in all cases: NCI anticancer screen, dose series, 48 h
A549 NSCLC = tested on: A549 NSCLC
BT-549 breast = tested on: BT-549 breast
CAKI-1 renal = tested on: CAKI-1 renal
CCRF-CEM leukemia = tested on: CCRF-CEM leukemia
HL-60(TB) leukemia = tested on: HL-60(TB) leukemia
HOP-92 NSCLC = tested on: HOP-92 NSCLC
M14 melanoma = tested on: M14 melanoma
MALME-3M melanoma = tested on: MALME-3M melanoma
MCF7 breast = tested on: MCF7 breast
MDA-N = tested on: MDA-N
NCI-H522 lung = tested on: NCI-H522 lung
OVCAR-8 ovarian = tested on: OVCAR-8 ovarian
SF-295 CNS = tested on: SF-295 CNS
SK-MEL-5 melanoma = tested on: SK-MEL-5 melanoma
SN12C renal = tested on: SN12C renal
SW-620 colon = tested on: SW-620 colon
TK-10 renal = tested on: TK-10 renal
U251 CNS = tested on: U251 CNS
UO-31 renal = tested on: UO-31 renal
RXF 393 renal = tested on: RXF 393 renal

Row | SMILES | TGI (A549 NSCLC) [µM] | TGI (BT-549 breast) [µM] | TGI (CAKI-1 renal) [µM] | TGI (CCRF-CEM leukemia) [µM] | TGI (HL-60(TB) leukemia) [µM] | TGI (HOP-92 NSCLC) [µM] | TGI (M14 melanoma) [µM] | TGI (MALME-3M melanoma) [µM] | TGI (MCF7 breast) [µM] | TGI (MDA-N) [µM] | TGI (NCI-H522 lung) [µM] | TGI (OVCAR-8 ovarian) [µM] | TGI (SF-295 CNS) [µM] | TGI (SK-MEL-5 melanoma) [µM] | TGI (SN12C renal) [µM] | TGI (SW-620 colon) [µM] | TGI (TK-10 renal) [µM] | TGI (U251 CNS) [µM] | TGI (UO-31 renal) [µM] | TGI (RXF 393 renal) [µM]
1 | O=Nc1c(NO)ccc2nn(-c3ccccc3)nc12 | > 100 | > 100 | 71.3 | > 100 | > 100 | > 100 | > 100 | > 100 | 19.6 | > 100 | 13.2 | > 100 | > 100 | 10.8 | 40 | > 100 | > 100 | > 100 | 11.8 | 
2 | CC1c2cc(c3c(c2O)CN([C@@H](C)C2CCCCC2)CO3)C(C)c2cc(c3c(c2O)CN([C@@H](C)C2CCCCC2)CO3)C(C)c2cc(c3c(c2O)CN([C@@H](C)C2CCCCC2)CO3)C(C)c2cc1c1c(c2O)CN([C@@H](C)C2CCCCC2)CO1 (some centres not stated) | > 100 | 3.49 | 2.95 | 1.45 | 5.59 | 2.85 | > 23.7 | 2.98 |  | 3.04 | 1.58 | 2.4 |  | 3.46 | 2.29 |  | 3.19 | 2.83 | 3.21 | > 100
3 | c1cc(NC2=NCCO2)c2c(c1)OCO2 | > 100 |  | > 100 | > 100 | > 100 | > 100 | > 100 | > 100 | > 100 | > 100 | > 100 | > 100 | > 100 | > 100 | > 100 | > 100 |  | > 100 | > 100 | > 100
4 | COc1cccc(C2c3cc4c(cc3OC(N3CCCCC3)C2C)OCO4)c1OC (configuration not stated) | 22.3 | 57.4 | 11 | 15.2 |  | 37.9 | 47.1 | 39.4 | 52.1 | 47 | 29 | > 100 | 22.5 | 21.5 | 96.8 | 68.9 | 84.1 | 51.5 | 48.6 | 28.2
5 | CC1=CC(=O)/C(=C/n2c(=S)[nH]c3ccc([N+](=O)[O-])cc32)C(=O)O1 | > 100 | > 100 |  | > 100 | 4.93 | > 100 | > 100 |  | > 100 | > 100 | > 100 | > 100 | > 100 | > 100 | > 100 | > 100 | > 100 | > 100 | > 100 | > 100
6 | COc1ccc(CNC(=O)[C@@H]2CCCN2C(=O)[C@@H]2CCCN2C(=O)[C@H](C(C)C)N(C)C(=O)[C@@H](NC(=O)[C@H](C(C)C)N(Cc2ccccc2)Cc2ccccc2)C(C)C)cc1OC (Bn2Val-V[NMeV]PP-{NH(3,4-diMeO-benzyl)}) | 38.4 | 34.5 | 38.1 | > 100 | 6.17 | 28.9 | 29.4 | 46.2 |  | 30.5 | 20.6 | 30.3 | 29.9 | 20.4 | 29.9 | > 60.8 | 29.5 | 45.7 |  | 26.7
7 | Oc1cccc2c1[nH]c1c(C3=C[C@@]4(O)CC/C=C\CCCCN5CC[C@@H]3[C@]3(CC6/C=C\CCCCN6[C@H]34)C5)nccc12 (some centres not stated) | 4.39 | 4.37 | 4.43 | 4.04 | 2.59 | 1.3 | 2.45 | 3.02 | 1.77 | 2 | 2.4 | 2.88 | 3.29 | 2.96 | 2.49 | 3.44 | 5.56 | 2.79 | 3.5 | 
8 | O=[N+]([O-])c1ccc(C(=Nc2ccccc2)SSC(=Nc2ccccc2)c2ccc([N+](=O)[O-])o2)o1 |  | 3.69 | 4.67 |  | 8.61 | 6.22 | 4.85 | 5.09 |  | 12.4 | 0.755 | 3.75 | 8.31 | 20.9 | 4.48 |  | 13.9 | 2.24 | 2.82 | 4.55
9 | CCN(CC)C(=S)SS(=O)(=O)c1ccc(NC(C)=O)cc1 | 43.4 | > 78.4 | 41.8 |  | 76.4 | 51.3 | 33 | 31.6 |  | > 78.8 | 0.84 | 29.1 | > 100 | 20.9 | 39.1 | 32 | > 76 | 44.6 | 42.6 | 33
10 | NC(=O)OCc1c(-c2ccccc2)nn(-c2ccccc2)c1COC(N)=O | > 100 | > 100 | > 100 |  |  | > 100 | > 100 | > 100 | > 100 | > 100 | > 100 | > 100 | > 100 | > 100 | > 100 | > 100 | > 100 | > 100 | > 100 | > 100
11 | CCc1ccccc1NC(=O)C(=O)CC(=O)c1sc(Nc2ccccc2Cl)nc1C | 80 | > 100 | > 100 | 58.9 | > 100 |  | 63.7 |  | 45.9 | 94.4 | 47.5 | > 100 | 99.2 | 52.4 | > 100 | 69.9 | > 100 | > 100 | > 100 | 74.2
12 | O=C1C=C2CC[C@H]3[C@@H]4CC[C@H](OC(=O)c5cccc6cc7ccccc7nc56)[C@H]4CC[C@@H]3[C@H]2CC1 | > 100 | > 100 |  | > 100 | > 100 |  | > 100 | > 100 | > 100 | > 100 | 69.2 | > 100 | > 100 | > 100 | > 100 | > 100 | > 100 | > 100 | > 100 | 
13 | CC12C(=O)OC(=O)C1(C)C1C=CC2O1 (configuration not stated) | > 100 | > 100 | > 100 | > 100 | > 100 |  | > 100 | > 100 | > 100 | > 100 | > 100 | > 100 | > 100 | > 100 | > 100 | > 100 | > 100 | > 100 | > 100 | > 100
14 | CN(C)Cc1cc(/C=C/C(=O)c2ccc(Cl)c(Cl)c2)cc(CN(C)C)c1O | 36.8 | 22.2 | 21.1 | 16.9 | > 100 |  | 33.3 | 22.7 | 31.7 | 29.8 |  | 32.8 | 36.1 | 28.1 | 30.2 | 30.1 | 25.6 |  | 19.6 | 28.4
15 | O=c1c2cc(S(=O)(=O)Nc3c(Cl)cccc3Cl)ccc2ncn1NS(=O)(=O)c1ccc2ccccc2c1 | > 62.5 | > 62.5 | > 62.5 | > 62.5 | > 62.5 | > 62.5 | > 62.5 | > 62.5 | > 62.5 | > 62.5 | > 62.5 | > 62.5 | > 62.5 |  | > 62.5 | > 62.5 | > 62.5 | > 62.5 | > 62.5 | 
16 | N#CC1(C#N)C(c2ccccc2)C=CC(c2ccc([N+](=O)[O-])cc2)C1(C#N)C#N (configuration not stated) | 32 | 24.3 | 13.1 | > 100 | 0.574 | 9.88 | 15.7 |  | 21.1 | 17 | 9.48 | 27.5 | 33.7 | 22.9 | 12.2 | > 32.4 | 13.1 | 53 | 26.8 | 
17 | COC(=O)C1(C(=O)OC)CC2=C(S(=O)(=O)c3ccccc3)C[C@H](C#N)[C@H]2C1 | > 100 |  | > 100 | > 100 | > 100 | > 100 | > 100 | > 100 | > 100 | > 100 | > 100 | > 100 | > 100 | > 100 | > 100 | > 100 | > 100 | > 100 | > 100 | > 100
18 | C#CCCOC(=O)c1ccccc1OC(C)=O |  | > 100 | > 100 | > 100 |  | > 100 | > 100 |  | > 100 | > 100 | > 100 | > 100 | > 100 | > 100 | > 100 | > 100 | > 100 | > 100 | > 100 | > 100
19 | Cc1cn(C2CC(NC(=NCC3OC(n4cnc5c(N)ncnc54)CC3O)NC#N)C(CO)O2)c(=O)[nH]c1=O (configuration not stated) | > 100 |  | > 100 | > 100 | > 100 | > 100 | > 100 | > 100 | > 100 | > 100 | > 100 | > 100 | > 100 | > 100 | > 100 | > 100 | > 100 | > 100 | > 100 | > 100
20 | O=C1OC(CS(=O)(=O)c2ccccc2)CC1O (configuration not stated) | > 100 | > 100 | > 100 | > 100 |  |  | > 100 | > 100 | > 100 | > 100 | > 100 | > 100 | > 100 | > 100 | > 100 | > 100 | > 100 | > 100 | > 100 | > 100
21 | O=C(c1ccccc1)C1C[C@H]2CO[C@H](c3ccccc3)N2C1=O (some centres not stated) | > 100 | > 100 | > 100 | > 100 |  | > 100 | > 100 | > 100 | > 100 | > 100 | > 100 | > 100 | > 100 | > 100 | > 100 | > 100 | > 100 | > 100 | > 100 | > 100
22 | COc1ccc(-n2sc3ncc([N+](=O)[O-])cc3c2=O)cc1 | > 100 | > 100 |  | > 100 | > 100 |  | > 100 | > 100 | > 100 | > 100 | > 100 | > 100 | > 100 | > 100 | > 100 | > 100 | > 100 | > 100 | > 100 | 
23 | N#CC(c1ccccc1)N(CCOCCOCCN(C(=O)c1cccc2ccccc12)C(C#N)c1ccccc1)C(=O)c1cccc2ccccc12 (configuration not stated) | > 100 | > 100 | > 100 | > 100 | > 100 |  | > 100 | > 100 | > 100 | > 100 |  | > 100 | > 100 | > 100 | > 100 | > 100 | > 100 | > 100 | > 100 | > 100
24 | C=C(CN)CO[Si](C)(C)C(C)(C)C | > 100 | > 100 | > 100 | > 100 | > 100 |  | > 100 | > 100 | > 100 | > 100 | > 100 | > 100 | > 100 | > 100 | > 100 | > 100 | > 100 | > 100 | > 100 | 
